According to PubChem BioAssay AID1918998 (Molecular Pharmacology Branch, DTP, NCI, 2023):

Test system: 521955-158-R2-J5-PDC complex spheroid growth
Assay: Anticancer human tumor 521955-158-R2-J5-PDC patient-derived pancreatic carcinoma cell line growth inhibition [AhR]
Settings: for IC50: curve of first compound; for viability, T/C: stronger effect = lower value
Summary of the method: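 Agents were dosed in half-log steps down from roughly clinical Cmax, or from 10 microM where Cmax was unknown, alone and with AhR antagonists. Read-out: percent test/control growth of tumor spheroids containing HUVEC and MSC stromal cells.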

[1] = second compound 0.1 µM, first compound 0.0316 µM
[2] = second compound 0.1 µM, first compound 0.1 µM
[3] = second compound 0.1 µM, first compound 0.316 µM
[4] = second compound 0.1 µM, first compound 1 µM
[5] = second compound 0.1 µM, first compound 3.16 µM
[6] = second compound 0.1 µM, first compound 10 µM
[7] = second compound 0.316 µM, first compound 0.0316 µM
[8] = second compound 0.316 µM, first compound 0.1 µM
[9] = second compound 0.316 µM, first compound 0.316 µM
[10] = second compound 0.316 µM, first compound 1 µM
[11] = second compound 0.316 µM, first compound 3.16 µM
[12] = second compound 0.316 µM, first compound 10 µM
[13] = second compound 1 µM, first compound 0.0316 µM
[14] = second compound 1 µM, first compound 0.1 µM
[15] = second compound 1 µM, first compound 0.316 µM
[16] = second compound 1 µM, first compound 1 µM
[17] = second compound 1 µM, first compound 3.16 µM
[18] = second compound 1 µM, first compound 10 µM
[19] = second compound 3.16 µM, first compound 0.0316 µM
[20] = second compound 3.16 µM, first compound 0.1 µM
[21] = second compound 3.16 µM, first compound 0.316 µM
[22] = second compound 3.16 µM, first compound 1 µM
[23] = second compound 3.16 µM, first compound 3.16 µM
[24] = second compound 3.16 µM, first compound 10 µM
[25] = second compound 10 µM, first compound 0.0316 µM
[26] = second compound 10 µM, first compound 0.1 µM
[27] = second compound 10 µM, first compound 0.316 µM
[28] = second compound 10 µM, first compound 1 µM
[29] = second compound 10 µM, first compound 3.16 µM
[30] = second compound 10 µM, first compound 10 µM
[31] = second compound 0.1 µM, first compound 0.00316 µM
[32] = second compound 0.1 µM, first compound 0.01 µM
[33] = second compound 0.316 µM, first compound 0.00316 µM
[34] = second compound 0.316 µM, first compound 0.01 µM
[35] = second compound 1 µM, first compound 0.00316 µM
[36] = second compound 1 µM, first compound 0.01 µM
[37] = second compound 3.16 µM, first compound 0.00316 µM
[38] = second compound 3.16 µM, first compound 0.01 µM
[39] = second compound 10 µM, first compound 0.00316 µM
[40] = second compound 10 µM, first compound 0.01 µM
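For viability, T/C in this document: spheroids mix tumor cells with HUVEC endothelium and human MSC stroma; luminescence taken as viability surrogate after a week of drug exposure.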

Row | Structure (SMILES) | IC50 (second compound 0.1 µM) [nM] | IC50 (second compound 0.316 µM) [nM] | IC50 (second compound 1 µM) [nM] | IC50 (second compound 3.16 µM) [nM] | IC50 (second compound 10 µM) [nM] | viability, T/C [1] [%] | viability, T/C [2] [%] | viability, T/C [3] [%] | viability, T/C [4] [%] | viability, T/C [7] [%] | viability, T/C [8] [%] | viability, T/C [9] [%] | viability, T/C [10] [%] | viability, T/C [13] [%] | viability, T/C [14] [%] | viability, T/C [15] [%] | viability, T/C [16] [%] | viability, T/C [19] [%] | viability, T/C [20] [%] | viability, T/C [21] [%] | other results
1 | CC(C)c1c(-c2ccccc2)nc2c(C#N)c[nH]n2c1=O + Cc1ccccc1N=Nc1ccc(NC(=O)c2ccnn2C)c(C)c1 | > 10000 | > 10000 | > 10000 | > 10000 | > 10000 | 98.1 | 125 | 80.3 | 94.7 | 115 | 95.1 | 110 | 81.5 | 88.7 | 101 | 102 | 87.8 | 128 | 125 | 127 | viability, T/C [5]: 81.2%; viability, T/C [6]: 97.8%; viability, T/C [11]: 82%; viability, T/C [12]: 81.6%; viability, T/C [17]: 92.6%; viability, T/C [18]: 97.8%; viability, T/C [22]: 114%; viability, T/C [23]: 114%; viability, T/C [24]: 114%; viability, T/C [25]: 141%; viability, T/C [26]: 130%; viability, T/C [27]: 132%; viability, T/C [28]: 123%; viability, T/C [29]: 114%; viability, T/C [30]: 103%
2 | CC1COCCN1c1cc(-c2ccnn2C)c2ccnc(-c3ccn[nH]3)c2n1 (stereo not given) + Cc1ccccc1N=Nc1ccc(NC(=O)c2ccnn2C)c(C)c1 | 149 | 154 | 152 | 143 | 101 | 122 | 66.6 | 19.4 | 17.9 | 127 | 70 | 17.9 | 15.2 | 109 | 71 | 14.2 | 13.8 | 145 | 66.4 | 13.4 | viability, T/C [31]: 128%; viability, T/C [32]: 116%; viability, T/C [33]: 122%; viability, T/C [34]: 116%; viability, T/C [35]: 123%; viability, T/C [36]: 138%; viability, T/C [37]: 144%; viability, T/C [38]: 131%; viability, T/C [22]: 14.2%; viability, T/C [39]: 134%; viability, T/C [40]: 154%; viability, T/C [25]: 108%; viability, T/C [26]: 54.5%; viability, T/C [27]: 12.4%; viability, T/C [28]: 15.4%
3 | COc1ccc([C@@H](O)c2cc(-c3ncnc4cc(N5CCOCC5)ccc34)c(F)cc2Cl)nn1 + Cc1ccccc1N=Nc1ccc(NC(=O)c2ccnn2C)c(C)c1 | > 10000 | > 10000 | > 10000 | > 10000 | > 10000 | 116 | 98.5 | 75.9 | 78.1 | 98.8 | 96.3 | 93.5 | 89.9 | 109 | 133 | 108 | 97.2 | 139 | 117 | 128 | viability, T/C [5]: 67.1%; viability, T/C [6]: 48.3%; viability, T/C [11]: 72.8%; viability, T/C [12]: 56.6%; viability, T/C [17]: 84.4%; viability, T/C [18]: 59%; viability, T/C [22]: 101%; viability, T/C [23]: 91.3%; viability, T/C [24]: 54.3%; viability, T/C [25]: 142%; viability, T/C [26]: 136%; viability, T/C [27]: 142%; viability, T/C [28]: 105%; viability, T/C [29]: 88.9%; viability, T/C [30]: 49.9%
4 | COc1cc(C2c3cc4c(cc3C(OC3OC5COC(C)OC5C(O)C3O)C3COC(=O)C23)OCO4)cc(OC)c1O (stereo not given) + Cc1cncc(-c2nc(NCCc3c[nH]c4ccccc34)c3ncn(C(C)C)c3n2)c1 | 1080 | 1010 | 980 | 1050 | 1810 | 102 | 107 | 85 | 52.6 | 107 | 101 | 93.2 | 49.1 | 106 | 111 | 86.5 | 50.2 | 112 | 126 | 118 | viability, T/C [5]: 29%; viability, T/C [6]: 25.8%; viability, T/C [11]: 27.4%; viability, T/C [12]: 19.2%; viability, T/C [17]: 27.9%; viability, T/C [18]: 23.6%; viability, T/C [22]: 50.9%; viability, T/C [23]: 34.4%; viability, T/C [24]: 26.2%; viability, T/C [25]: 179%; viability, T/C [26]: 126%; viability, T/C [27]: 118%; viability, T/C [28]: 56.9%; viability, T/C [29]: 31.6%; viability, T/C [30]: 25.1%
5 | COc1cccc2c1C(=O)c1c(O)c3c(c(O)c1C2=O)CC(O)(C(=O)CO)CC3OC1CC(N)C(O)C(C)O1 (stereo not given) + Cc1cncc(-c2nc(NCCc3c[nH]c4ccccc34)c3ncn(C(C)C)c3n2)c1 | < 31.6 | < 31.6 | < 31.6 | 72.6 | 108 | 53.6 | 35.6 | 36.2 | 2.01 | 49 | 35 | 39.2 | 0.95 | 51.2 | 30.6 | 46.8 | 1.72 | 64.2 | 37.3 | 41.3 | viability, T/C [5]: 6.72%; viability, T/C [6]: 11.6%; viability, T/C [11]: 6.23%; viability, T/C [12]: 14.8%; viability, T/C [17]: 5.39%; viability, T/C [18]: 16.6%; viability, T/C [22]: 2.7%; viability, T/C [23]: 8.4%; viability, T/C [24]: 12.2%; viability, T/C [25]: 64.2%; viability, T/C [26]: 48.4%; viability, T/C [27]: 29%; viability, T/C [28]: 0.47%; viability, T/C [29]: 3.33%; viability, T/C [30]: 9.06%
6 | Nc1ncn(C2CC(O)C(CO)O2)c(=O)n1 (stereo not given) + Cc1cncc(-c2nc(NCCc3c[nH]c4ccccc34)c3ncn(C(C)C)c3n2)c1 | 936 | > 1000 | > 1000 | > 1000 | > 1000 | 101 | 95.4 | 79.6 | 48.2 | 96.4 | 82.7 | 63.9 | 55.7 | 121 | 93.9 | 82.3 | 57.5 | 145 | 119 | 115 | viability, T/C [31]: 92.4%; viability, T/C [32]: 84.2%; viability, T/C [33]: 102%; viability, T/C [34]: 99%; viability, T/C [35]: 112%; viability, T/C [36]: 117%; viability, T/C [37]: 148%; viability, T/C [38]: 123%; viability, T/C [22]: 79.8%; viability, T/C [39]: 141%; viability, T/C [40]: 110%; viability, T/C [25]: 152%; viability, T/C [26]: 124%; viability, T/C [27]: 135%; viability, T/C [28]: 76.1%
